Experimental findings from patent US4785090A, “Cephalosporin derivatives” (Meiji Seika Kaisha, Ltd., priority 1984, dated 1988) are described below.

Structures can show the parent of a compound that is named as a salt. Where two headings read alike, the source gives them in different places.

Data set [1] deals with Staphylococcus aureus 209PJC1. Nature of the data set: Minimum Growth Inhibitory Concentration (MIC), Staphylococcus aureus 209PJC1. Format: cell-based.
Source text: (§1) Minimum Growth Inhibitory Concentration (MIC) mcg/ml
1. Staphylococcus aureus 209PJC1
as §1
2. Staphylococcus aureus 209 PJC1

The subject of data set [2] is Klebsiella pneumoniae PCI 602. Nature of the data set: Minimum Growth Inhibitory Concentration (MIC), Klebsiella pneumoniae PCI 602. Type of data set: cell-based.
Source text: as §1
5. Klebsiella pneumoniae PCI 602

Data set [3] in a line: Serum concentration in mice after subcutaneous administration. To be noted: mouse, sc, subcutaneous 25 mg/kg. Format: in vivo. The protocol:
The experiment was conducted by using 3 mice (average body weight 20 g) in each group, subcutaneously administering 25 mg/kg of the sample, taking blood samples at predetermined intervals, separating the serum and measuring the sample concentration by an antibacterial activity test using Escherichia coli as a testing bactera.

In data set [4] the test system is Proteus rettgeri GN624. Nature of the data set: Minimum Growth Inhibitory Concentration (MIC), Proteus rettgeri GN624. To be noted: Providencia rettgeri. Type of data set: cell-based.
Source text: as §1
9. Proteus rettgeri GN624

Data set [5] deals with Serratia marcescens No. 2. The experiment in a line: Minimum Growth Inhibitory Concentration (MIC), Serratia marcescens No. 2. Type of data set: cell-based.
Source text: as §1
10. Serratia marcescens No. 2

Data set [6] relates to Salmonella typhimurium LT2. Nature of the data set: Minimum Growth Inhibitory Concentration (MIC), Salmonella typhimurium LT2. Format: cell-based. To be noted: Salmonella enterica, read-out: Minimum Growth Inhibitory Concentration (MIC).
Source text: as §1
7. Salmonella typhimurium LT2

Data set [7] has as its system Proteus vulgaris GN 76. Nature of the data set: Minimum Growth Inhibitory Concentration (MIC), Proteus vulgaris GN 76. Format: cell-based.
Source text: as §1
10. Proteus vulgaris GN 76
as §1
8. Proteus vulgaris GN 76

Data set [8] relates to Staphylococcus aureus Smith. The experiment in a line: Minimum Growth Inhibitory Concentration (MIC), Staphylococcus aureus Smith. Type of data set: cell-based. To be noted: read-out: Minimum Growth Inhibitory Concentration (MIC).
Source text: as §1
1. Staphylococcus aureus Smith

Data set [9] relates to Proteus mirabilis GN 79. Nature of the data set: Minimum Growth Inhibitory Concentration (MIC), Proteus mirabilis GN 79. Format: cell-based.
Source text: as §1
6. Proteus mirabilis GN 79

In data set [10] the test system is Eshcerichia coli GN 206. Nature of the data set: Minimum Growth Inhibitory Concentration (MIC), Escherichia coli GN 206. Type of data set: cell-based.
Source text: as §1
4. Eshcerichia coli GN 206

Data set [11] relates to Escherichia coli NIHJ JC2. Nature of the data set: Minimum Growth Inhibitory Concentration (MIC), Escherichia coli NIHJ JC2. Format: cell-based.
Source text: as §1
3. Escherichia coli NIHJ JC2

Setting [12] is: Staphylococcus aureus, 209PJC1, read-out: Minimum Growth Inhibitory Concentration (MIC).
Where [13] appears, read: Klebsiella pneumoniae, PCI602, read-out: Minimum Growth Inhibitory Concentration (MIC).
Where [14] appears, read: GN624, read-out: Minimum Growth Inhibitory Concentration (MIC).
The mark [15] stands for this setting: Serratia marcescens, NO.2, read-out: Minimum Growth Inhibitory Concentration (MIC).
[16] abbreviates: Proteus vulgaris, GN76, read-out: Minimum Growth Inhibitory Concentration (MIC).
Where [17] appears, read: Proteus mirabilis, GN79, read-out: Minimum Growth Inhibitory Concentration (MIC).
Setting [18] is: GN206, read-out: Minimum Growth Inhibitory Concentration (MIC).
Where [19] appears, read: Escherichia coli, NIHJJC2, read-out: Minimum Growth Inhibitory Concentration (MIC).
[20] abbreviates: Table 2, bacterium 7: Salmonella typhimurium LT2.
[21] abbreviates: Table 2, bacterium 2: Staphylococcus aureus 209 PJC1, read-out: Minimum Growth Inhibitory Concentration (MIC).
Where [22] appears, read: PCI602, Table 2, bacterium 5: Klebsiella pneumoniae PCI 602, read-out: Minimum Growth Inhibitory Concentration (MIC).
Setting [23] is: Table 2, bacterium 9: Proteus rettgeri GN624, read-out: Minimum Growth Inhibitory Concentration (MIC).
Setting [24] is: Table 2, bacterium 10: Serratia marcescens No. 2, read-out: Minimum Growth Inhibitory Concentration (MIC).
[25] abbreviates: GN76, Table 2, bacterium 8: Proteus vulgaris GN 76, read-out: Minimum Growth Inhibitory Concentration (MIC).
[26] abbreviates: Table 2, bacterium 1: Staphylococcus aureus Smith.
The mark [27] stands for this setting: GN79, Table 2, bacterium 6: Proteus mirabilis GN 79, read-out: Minimum Growth Inhibitory Concentration (MIC).
[28] abbreviates: GN206, Table 2, bacterium 4: Eshcerichia coli GN 206, read-out: Minimum Growth Inhibitory Concentration (MIC).
The mark [29] stands for this setting: NIHJJC2, Table 2, bacterium 3: Escherichia coli NIHJ JC2, read-out: Minimum Growth Inhibitory Concentration (MIC).

On to `CO/N=C(\C(=O)N[C@@H]1C(=O)N2C(C(=O)O)=C(CSc3cc[n+](CC(=O)O)cc3)CS[C@H]12)c1csc(N)n1.[Na+]`, for which the MIC is 0.78 mg/L in [1] (setting [12]); 0.025 mg/L in data set [2] (setting [13]); 0.39 mg/L in [4] (setting [14]); 0.05 mg/L in data set [5] (setting [15]); 0.025 mg/L in data set [6] (TYPHIMURIUM); 0.05 mg/L in data set [7] (setting [16]). Besides, the MIC in data set [8] (Staphylococcus aureus) amounted to 1.56 mg/L; in data set [9] (setting [17]), 0.2 mg/L; in data set [10] (setting [18]) it was 0.2 mg/L; in data set [11] (setting [19]), 1.56 mg/L. In data set [3] (1/2 hr), this compound returned a concentration at 0.5 h of 12.5 µg/mL. Also, the concentration at 0.25 h in data set [3] (1/4 hr) came out at 28 µg/mL. Also, the concentration at 5 min in [3] (1/12 hr) was 20 µg/mL. This compound also displayed a concentration at 1 h in data set [3] (1 hr) of 2.2 µg/mL.

In the case of `Nc1nc(/C(=N/OCC(=O)O)C(=O)N[C@@H]2C(=O)N3C(C(=O)O)=C(CSc4cc[n+](CC(=O)O)cc4)CS[C@H]23)cs1.[Na+]` [Example 29, (6R,7R)-7-[(Z)-2-(2-Aminothiazol-4-yl)-2-(carboxymethoxyimino)acetamido]-3-[(1-carboxymethylpyridinium-4-yl)thiomethyl]-ceph-3-em-4-carboxylic acid sodium salt], the MIC in data set [1] (setting [12]) was 0.39 mg/L; in [2] (setting [13]), 0.1 mg/L; in [4] (setting [14]), 3.13 mg/L; in data set [5] (setting [15]), 0.39 mg/L; in [6] (setting [20]), 0.2 mg/L; in data set [7] (setting [16]), 0.2 mg/L. Also, the MIC in data set [8] (Staphylococcus aureus) stood at 0.78 mg/L; in data set [9] (setting [17]) it was 0.79 mg/L; in [10] (setting [18]), 0.39 mg/L; in data set [11] (setting [19]), 0.39 mg/L.

As to `C=CCO/N=C(\C(=O)N[C@@H]1C(=O)N2C(C(=O)O)=C(CSc3cc[n+](CC(=O)O)cc3)CS[C@H]12)c1csc(N)n1.[Na+]` [Example 30, (6R,7R)-7-[(Z)-2-(2-Aminothiazol-4-yl)-2-(allyloxyimino)acetamido]-3-[(1-carboxymethylpyridinium-4-yl)thiomethyl]-ceph-3-em-4-carboxylic acid sodium salt], the MIC in data set [1] (setting [12]) stood at 12.5 mg/L; in [2] (setting [13]) it was 0.1 mg/L; in data set [4] (setting [14]) it was 0.2 mg/L; in [5] (setting [15]), 0.1 mg/L; in data set [6] (setting [20]), 0.1 mg/L; in [7] (setting [16]) it was 0.05 mg/L. Further, the MIC in data set [8] (Staphylococcus aureus) stood at 25 mg/L; in [9] (setting [17]), 0.05 mg/L; in [10] (setting [18]) it was 1.56 mg/L; in data set [11] (setting [19]), 25 mg/L.

As to `CCO/N=C(\C(=O)N[C@@H]1C(=O)N2C(C(=O)[O-])=C(CSc3cc[n+](C(C)C(=O)O)cc3)CS[C@H]12)c1csc(N)n1` (stereo partly drawn) [Example 31, (6R,7R)-7-[(Z)-2-(2-Aminothiazol-4-yl)-2-ethoxyiminoacetamido]-3-[1-(1-carboxy-1-ethylpyridinium-4-yl)thiomethyl]-ceph-3-em-4-carboxylic acid sodium salt], the MIC in [1] (setting [21]) came out at 3.13 mg/L; in data set [2] (setting [22]), 0.2 mg/L; in data set [4] (setting [23]) it was 0.78 mg/L; in [5] (setting [24]) it was 0.39 mg/L; in data set [6] (setting [20]), 0.2 mg/L; in [7] (setting [25]), 1.56 mg/L. Moreover, the MIC turned out to be 3.13 mg/L in [8] (setting [26]), 0.78 mg/L in [9] (setting [27]), 0.39 mg/L in data set [10] (setting [28]) and 6.25 mg/L in data set [11] (setting [29]).

For the compound `CCO/N=C(\C(=O)N[C@@H]1C(=O)N2C(C(=O)[O-])=C(CSc3cc[n+](C(C(=O)O)c4ccccc4)cc3)CS[C@H]12)c1csc(N)n1` (stereo partly drawn) [Example 32, (6R,7R)-7-[(Z)-2-(2-Aminothiazol-4-yl)-2-ethoxyiminoacetamido]-3-[(1-carboxybenzylpyridinium-4-yl)thiomethyl]-ceph-3-em-4-carboxylic acid sodium salt], the MIC in [1] (setting [21]) is 1.56 mg/L; in [2] (setting [22]), 0.2 mg/L; in [4] (setting [23]), 0.39 mg/L; in data set [5] (setting [24]), 0.78 mg/L; in [6] (setting [20]), 0.39 mg/L; in [7] (setting [25]), 0.78 mg/L. The MIC in data set [8] (setting [26]) stood at 1.56 mg/L; in [9] (setting [27]), 3.13 mg/L; in data set [10] (setting [28]), 0.78 mg/L; in data set [11] (setting [29]) it was 0.39 mg/L.
